Data from US11053204B2, “Pyrimidinyloxy benzene derivatives as herbicides” (FMC Corporation, priority 2015, dated 2021).

Columns and labels:
Assay type in all cases: in vivo
[1] = test system: barnyardgrass (Echinochloa crus-galli); test: Test A preemergence, visual injury rating; details: Echinochloa crus-galli, pre-emergence, 240 h, 0 to 100 scale (0 no effect, 100 complete control), read-out: Barnyardgrass plant response rating
Summary of the method: (§1)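 Visual 0–100 rating (100 = complete control) taken about 10 d post-treatment relative to untreated checks. Preemergence: directed soil spray on sown loam/sand pots. Postemergence: seedlings 2–10 cm, 1–2 leaf. Non-phytotoxic solvent formulation with surfactant.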

[2] = test system: Italian ryegrass (Lolium multiflorum); test: Test A preemergence, visual injury rating; details: Lolium multiflorum, pre-emergence, 240 h, 0 to 100 scale (0 no effect, 100 complete control), read-out: Ryegrass, Italian plant response rating
Summary of the method: as §1

[3] = test system: pigweed (Amaranthus retroflexus); test: Test A preemergence, visual injury rating; details: Amaranthus retroflexus, pre-emergence, 240 h, 0 to 100 scale (0 no effect, 100 complete control), read-out: Pigweed plant response rating
Summary of the method: as §1

[4] = test system: ragweed (common ragweed, Ambrosia elatior); test: Test A preemergence, visual injury rating; details: Ambrosia artemisiifolia, pre-emergence, 240 h, 0 to 100 scale (0 no effect, 100 complete control), read-out: Ragweed plant response rating
Summary of the method: as §1

[5] = test system: giant foxtail (Setaria faberii); test: Test A preemergence, visual injury rating; details: Setaria faberi, pre-emergence, 240 h, 0 to 100 scale (0 no effect, 100 complete control), read-out: Foxtail, Giant plant response rating
Summary of the method: as §1

[6] = test system: kochia (Kochia scoparia); test: Test A preemergence, visual injury rating; details: Bassia scoparia, pre-emergence, 240 h, 0 to 100 scale (0 no effect, 100 complete control), read-out: Kochia plant response rating
Summary of the method: as §1

[7] = test system: wheat (winter wheat, Triticum aestivum); test: Test C postemergence, plant response rating; details: Triticum aestivum, post-emergence
From the text: (§2) Seeds of plant species selected from blackgrass (Alopecurus myosuroides), ryegrass, Italian (Italian ryegrass, Lolium multiflorum), wheat (winter wheat, Triticum aestivum), galium (catchweed bedstraw, Galium aparine), corn (Zea mays), crabgrass, large (large crabgrass, Digitaria sanguinalis), foxtail, giant (giant foxtail, Setaria faberii), johnsongrass (Sorghum halepense), lambsquarters (Chenopodium album), morningglory (Ipomoea coccinea), nutsedge, yellow (yellow nutsedge, Cyperus esculentus), pigweed (Amaranthus retroflexus), ragweed (common ragweed, Ambrosia elatior), soybean (Glycine max), barnyardgrass (Echinochloa crus-galli), oilseed rape (Brassica napus), pigweed, palmer (palmer pigweed, Amaranthus palmeri), waterhemp (common waterhemp, Amaranthus rudis), velvetleaf (Abutilon theophrasti), kochia (Kochia scoparia), surinam grass (Brachiaria decumbens), nightshade (eastern black nightshade, Solanum ptycanthum), wild poinsettia (Euphorbia heterophylla), windgrass (Apera spica-venti), and oat, wild (wild oat Avena fatua), were planted into a blend of loam soil and sand or a silt loam soil and treated preemergence with test chemicals formulated in a non-phytotoxic solvent mixture which included a surfactant.
(§3) At the same time, plants selected from these crop and weed species and also chickweed (common chickweed, Stellaria media), buckwheat, wild (wild buckwheat, Polygonum convolvulus), wild mustard (Sinapis arvensis), field poppy (Papaver rhoeas), field violet (Viola arvensis), geranium, cutleaf (cutleaf geranium, Geranium dissectum), Canada thistle (Cirsium arvense), and speedwell (bird's-eye speedwell, Veronica persica), were planted in pots containing Sunshine Redi-Earth® planting medium comprising spaghnum peat moss, vermiculite, starter nutrients and dolomitic limestone and treated with postemergence applications of test chemicals formulated in the same manner. Plants ranged in height from 2 to 18 cm (1- to 4-leaf stage) for postemergence treatments. Treated plants and controls were maintained in a greenhouse for 13 to 15 d, after which time all species were compared to controls and visually evaluated. Plant response ratings, summarized in Table C, are based on a scale of 0 to 100 where 0 is no effect and 100 is complete control. A dash (-) response means no test result.

[8] = test system: blackgrass (Alopecurus myosuroides); test: Test C postemergence, plant response rating; details: Alopecurus myosuroides, post-emergence
From the text: as §2, §3

[9] = test system: corn (Zea mays); test: Test C postemergence, plant response rating; details: Zea mays, post-emergence
From the text: as §2, §3

[10] = test system: nutsedge, yellow (yellow nutsedge, Cyperus esculentus); test: Test C postemergence, plant response rating; details: Cyperus, post-emergence
From the text: as §2, §3

[11] = test system: foxtail, giant (giant foxtail, Setaria faberii); test: Test C postemergence, plant response rating; details: Setaria faberi, post-emergence
From the text: as §2, §3

[12] = test system: ryegrass, Italian (Italian ryegrass, Lolium multiflorum); test: Test C postemergence, plant response rating; details: Lolium multiflorum, post-emergence
From the text: as §2, §3

[13] = test system: oat, wild (wild oat Avena fatua); test: Test C postemergence, plant response rating; details: Avena fatua, post-emergence
From the text: as §2, §3

[14] = test system: galium (catchweed bedstraw, Galium aparine); test: Test C postemergence, plant response rating; details: Galium, post-emergence
From the text: as §2, §3

[15] = test system: crabgrass, large (large crabgrass, Digitaria sanguinalis); test: Test C postemergence, plant response rating; details: Digitaria sanguinalis, post-emergence
From the text: as §2, §3

[16] = test system: chickweed (common chickweed, Stellaria media); test: Test C postemergence, plant response rating; details: Stellaria media, post-emergence
From the text: as §2, §3

[17] = test system: lambsquarters (Chenopodium album); test: Test C postemergence, plant response rating; details: Chenopodium album, post-emergence
From the text: as §2, §3

[18] = test system: soybean (Glycine max); test: Test C postemergence, plant response rating; details: Glycine max, post-emergence
From the text: as §2, §3

[19] = 125 g ai/ha, scale 0 to 100 (0 no effect, 100 complete control)
[20] = 62 g ai/ha, scale 0 to 100 (0 no effect, 100 complete control)

## C=CCOC(=O)c1c(Br)cccc1Oc1ncc(Cl)cn1 [Compound 22, 2-propen-1-yl 2-bromo-6-[(5-chloro-2-pyrimidinyl)oxy]benzoate]
[1]; 125 g ai/ha
  pest or weed control at 125 g/ha: 40%
[1]; 500 g ai/ha
  pest or weed control at 500 g/ha: 100%
[2]; 125 g ai/ha
  pest or weed control at 125 g/ha: 30%
[2]; 500 g ai/ha
  pest or weed control at 500 g/ha: 90%
[3]; 125 g ai/ha
  pest or weed control at 125 g/ha: 100%
[3]; 500 g ai/ha
  pest or weed control at 500 g/ha: 100%
[4]; 125 g ai/ha
  pest or weed control at 125 g/ha: 0%
[4]; 500 g ai/ha
  pest or weed control at 500 g/ha: 0%
[5]; 125 g ai/ha
  pest or weed control at 125 g/ha: 100%
[5]; 500 g ai/ha
  pest or weed control at 500 g/ha: 100%
[6]; 125 g ai/ha
  pest or weed control at 125 g/ha: 30%
[6]; 500 g ai/ha
  pest or weed control at 500 g/ha: 100%
[7]; 16 g ai/ha, scale 0 to 100
  plant injury at 16 g/ha: 0%
[7]; 31 g ai/ha, scale 0 to 100
  plant injury at 31 g/ha: 0%
[7]; 62 g ai/ha, scale 0 to 100 (0 no effect, 100 complete control), read-out: Wheat plant response rating
  plant injury at 62 g/ha: 0%
[7]; [19]
  plant injury at 125 g/ha: 0%
[8]; 16 g ai/ha, scale 0 to 100
  pest or weed control at 16 g/ha: 0%
[8]; 31 g ai/ha, scale 0 to 100
  pest or weed control at 31 g/ha: 0%
[8]; [20]
  pest or weed control at 62 g/ha: 0%
[8]; [19]
  pest or weed control at 125 g/ha: 5%
[9]; 16 g ai/ha, scale 0 to 100
  Corn plant response rating (crop injury, 0 = no effect, 100 = complete kill) at 16 g/ha: 5%
[9]; 31 g ai/ha, scale 0 to 100
  Corn plant response rating (crop injury, 0 = no effect, 100 = complete kill) at 31 g/ha: 5%
[9]; [20]
  plant injury at 62 g/ha: 5%
[9]; [19]
  plant injury at 125 g/ha: 15%
[10]; 16 g ai/ha, scale 0 to 100
  pest or weed control at 16 g/ha: 0%
[10]; 31 g ai/ha, scale 0 to 100
  pest or weed control at 31 g/ha: 0%
[10]; [20]
  pest or weed control at 62 g/ha: 5%
[10]; [19]
  pest or weed control at 125 g/ha: 5%
[11]; 16 g ai/ha, scale 0 to 100
  pest or weed control at 16 g/ha: 10%
[11]; 31 g ai/ha, scale 0 to 100
  pest or weed control at 31 g/ha: 10%
[11]; [20]
  pest or weed control at 62 g/ha: 15%
[11]; [19]
  pest or weed control at 125 g/ha: 25%
[12]; 16 g ai/ha, scale 0 to 100
  pest or weed control at 16 g/ha: 0%
[12]; 31 g ai/ha, scale 0 to 100
  pest or weed control at 31 g/ha: 0%
[12]; [20]
  pest or weed control at 62 g/ha: 0%
[12]; [19]
  pest or weed control at 125 g/ha: 5%
[13]; 16 g ai/ha, scale 0 to 100
  pest or weed control at 16 g/ha: 0%
[13]; 31 g ai/ha, scale 0 to 100
  pest or weed control at 31 g/ha: 0%
[13]; [20]
  pest or weed control at 62 g/ha: 0%
[13]; [19]
  pest or weed control at 125 g/ha: 5%
[14]; 16 g ai/ha, scale 0 to 100
  pest or weed control at 16 g/ha: 10%
[14]; 31 g ai/ha, scale 0 to 100
  pest or weed control at 31 g/ha: 25%
[14]; [20]
  pest or weed control at 62 g/ha: 60%
[14]; [19]
  pest or weed control at 125 g/ha: 70%
[15]; 16 g ai/ha, scale 0 to 100
  pest or weed control at 16 g/ha: 10%
[15]; 31 g ai/ha, scale 0 to 100
  pest or weed control at 31 g/ha: 15%
[15]; [20]
  pest or weed control at 62 g/ha: 25%
[15]; [19]
  pest or weed control at 125 g/ha: 25%
[16]; 16 g ai/ha, scale 0 to 100
  pest or weed control at 16 g/ha: 20%
[16]; 31 g ai/ha, scale 0 to 100
  pest or weed control at 31 g/ha: 60%
[16]; [20]
  pest or weed control at 62 g/ha: 65%
[16]; [19]
  pest or weed control at 125 g/ha: 60%
[17]; 16 g ai/ha, scale 0 to 100
  pest or weed control at 16 g/ha: 65%
[17]; 31 g ai/ha, scale 0 to 100
  pest or weed control at 31 g/ha: 70%
[17]; [20]
  pest or weed control at 62 g/ha: 70%
[17]; [19]
  pest or weed control at 125 g/ha: 75%
[18]; 16 g ai/ha, scale 0 to 100
  plant injury at 16 g/ha: 40%
[18]; 31 g ai/ha, scale 0 to 100
  plant injury at 31 g/ha: 40%
[18]; [20]
  plant injury at 62 g/ha: 35%
[18]; [19]
  plant injury at 125 g/ha: 75%
